This passage reports IC50 results from patent US8642799B2, “Cysteine protease inhibitors for the treatment of parasitic diseases” (Merck Canada Inc., priority 2007, dated 2014).

For the assay, the target named is cruzipain (Trypanosoma cruzi, UniProt P25779). In words: biochemical. The note with it: 50 pM cruzipain, pH 5.5, 15 minutes preincubation, 2 μM Z-Phe-Arg-AMC substrate. On the procedure: The assay solutions were mixed and incubated for 15 minutes at room temperature prior to the addition of 2 μM of Z-Phe-Arg-AMC substrate. […] Percent of inhibition were calculated by fitting experimental values to standard mathematical model for dose response curve.
cruzipain, sequence (P25779 123-467): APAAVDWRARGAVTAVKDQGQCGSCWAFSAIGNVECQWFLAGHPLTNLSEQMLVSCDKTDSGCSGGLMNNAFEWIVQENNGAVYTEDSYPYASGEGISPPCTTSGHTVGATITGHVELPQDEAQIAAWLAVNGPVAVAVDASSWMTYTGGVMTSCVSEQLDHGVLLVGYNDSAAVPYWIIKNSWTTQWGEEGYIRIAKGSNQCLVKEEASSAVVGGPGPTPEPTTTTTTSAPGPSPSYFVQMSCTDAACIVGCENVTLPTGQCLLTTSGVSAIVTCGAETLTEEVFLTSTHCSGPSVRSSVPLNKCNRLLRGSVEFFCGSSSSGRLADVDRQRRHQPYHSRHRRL
Broadly, the IC50 is the point on the concentration scale where inhibition reaches its midpoint. `CC(C)(F)C[C@H](N[C@@H](c1ccc(-c2ccc(S(C)(=O)=O)cc2)cc1)C(F)(F)F)C(=O)N[C@H](C#N)Cc1ccc(-c2cccnc2)cc1` [Example 14, (S)-4-Fluoro-4-methyl-2-[(S)-2,2,2-trifluoro-1-(4′-methanesulfonyl-biphenyl-4-yl)-ethylamino]-pentanoic acid [(S)-1-cyano-2-(4-pyridin-3-yl-phenyl)-ethyl]-amide] returned an IC50 of 7 nM.

For the compound `CC(C)(F)C[C@H](N[C@@H](c1ccc(-c2ccc([C@@H](O)C(F)F)cc2)cc1)C(F)(F)F)C(=O)N[C@H](C#N)Cc1ccc(C#N)cc1F` [Example 32, (S)-2-{(S)-1-[4′-((R)-2,2-Difluoro-1-hydroxy-ethyl)-biphenyl-4-yl]-2,2,2-trifluoro-ethylamino}-4-fluoro-4-methyl-pentanoic acid [(S)-cyano-(4-cyano-2-fluoro-benzyl)-methyl]-amide], the IC50 came to 0.9 nM. Against the preceding compound, the IC50 is about 7.8-fold lower. The value for `CC(C)(F)C[C@H](N[C@@H](c1ccc(-c2ccc(S(C)(=O)=O)cc2)cc1)C(F)(F)F)C(=O)NC(C#N)Cc1ccc(F)cc1F` (stereo partly drawn) [Example 34, (S)-4-Fluoro-4-methyl-2-[(S)-2,2,2-trifluoro-1-(4′-methanesulfonyl-biphenyl-4-yl)-ethylamino]-pentanoic acid [cyano-(2,4-difluoro-benzyl)-methyl]-amide] was 2.6 nM; that for `CC(C)[C@H](N[C@@H](c1ccc(-c2ccc([C@@H](O)C(F)F)cc2)cc1)C(F)(F)F)C(=O)N[C@H](C#N)Cc1ccccc1` [Example 50, (S)-N-((S)-Benzyl-cyano-methyl)-2-{(S)-1-[4′-((R)-2,2-difluoro-1-hydroxy-ethyl)-biphenyl-4-yl]-2,2,2-trifluoro-ethylamino}-3-methyl-butyramide] was 3.2 nM; that for `CC(C)(F)C[C@H](N[C@@H](c1ccc(-c2ccc(S(C)(=O)=O)cc2Cl)cc1)C(F)(F)F)C(=O)NC(C#N)Cc1ccc(C#N)cc1F` (stereo partly drawn) [Example 7, (S)-2-[(S)-1-(2′-Chloro-4′-methanesulfonyl-biphenyl-4-yl)-2,2,2-trifluoro-ethylamino]-4-fluoro-4-methyl-pentanoic acid [1-cyano-2-(4-cyano-2-fluoro-phenyl)-ethyl]-amide] was 0.9 nM. Take `C=CCNC(=O)C1(c2ccc(-c3ccc([C@H](N[C@@H](CC(C)(C)F)C(=O)N[C@H](C#N)Cc4ccccc4)C(F)(F)F)cc3)cc2)CC1` [Example 57, 1-[4′-((S)-1-{(S)-1-[((S)-Benzyl-cyano-methyl)-carbamoyl]-3-fluoro-3-methyl-butylamino}-2,2,2-trifluoro-ethyl)-biphenyl-4-yl]-cyclopropanecarboxylic acid allylamide]: the IC50 is 4.3 nM. This IC50 lies about 4.8-fold higher than the previous one.

In turn, `CC(C)(F)C[C@H](N[C@@H](c1ccc(-c2ccc(S(C)(=O)=O)cc2)cc1)C(F)(F)F)C(=O)N[C@H](C#N)Cc1ccc[n+]([O-])c1` [Example 74, (S)-4-Fluoro-4-methyl-2-[(S)-2,2,2-trifluoro-1-(4′-methanesulfonyl-biphenyl-4-yl)-ethylamino]-pentanoic acid [(S)-cyano-(1-oxy-pyridin-3-ylmethyl)-methyl]-amide] had a 50% inhibitory concentration (IC50) of 39 nM.

With `CC(C)[C@H](N[C@@H](c1ccc(-c2ccc(S(C)(=O)=O)cc2)cc1)C(F)(F)F)C(=O)N[C@H](C#N)Cc1c(F)cc(C#N)cc1F` [Example 72, (S)-N-[(S)-Cyano-(4-cyano-2,6-difluoro-benzyl)-methyl]-3-methyl-2-[(S)-2,2,2-trifluoro-1-(4,- methanesulfonyl-biphenyl-4-yl)-ethylamino]-butyramide], it took 0.5 nM to reach half-maximal inhibition (IC50). The figure for `CC(C)[C@H](N[C@@H](c1ccc(-c2ccc(N3CCNCC3)cc2)cc1)C(F)(F)F)C(=O)N[C@H](C#N)Cc1ccccc1` [Example 47, 4-[4′-((S)-1-{(S)-1-[((S)-Benzyl-cyano-methyl)-carbamoyl]-2-methyl-propylamino}-2,2,2-trifluoro-ethyl)-biphenyl-4-yl]-piperazin-1-ium; chloride] is 0.1 nM; for `CC(C)(F)C[C@H](N[C@@H](c1ccc(-c2ccc(S(C)(=O)=O)cc2Cl)cc1)C(F)(F)F)C(=O)NC(C#N)Cc1ccc(C#N)cc1Cl` (stereo partly drawn) [Example 6, (S)-2-[(S)-1-(2′-Chloro-4′-methanesulfonyl-biphenyl-4-yl)-2,2,2-trifluoro-ethylamino]-4-fluoro-4-methyl-pentanoic acid [2-(2-chloro-4-cyano-phenyl)-1-cyano-ethyl]-amide] it is 1.2 nM. The value for `CC(C)(F)C[C@H](N[C@@H](c1ccc(-c2ccc(S(C)(=O)=O)cc2)cc1)C(F)(F)F)C(=O)N[C@H](C#N)Cc1ccc(C(F)(F)F)cc1` [Example 19, (S)-4-Fluoro-4-methyl-2-[(S)-2,2,2-trifluoro-1-(4′-methanesulfonyl-biphenyl-4-yl)-ethylamino]-pentanoic acid [(S)-1-cyano-2-(4-trifluoromethyl-phenyl)-ethyl]-amide] was 12.4 nM; that for `CS(=O)(=O)c1ccc(-c2ccc([C@H](N[C@H](C(=O)N[C@H](C#N)Cc3ccc(C#N)cc3F)C3CC3)C(F)(F)F)cc2)cc1` [Example 68, (S)-N-[(S)-Cyano-(4-cyano-2-fluoro-benzyl)-methyl]-2-cyclopropyl-2-[(S)-2,2,2-trifluoro-1-(4′-methanesulfonyl-biphenyl-4-yl)-ethylamino]-acetamide] was 4.4 nM. The figure for `CC(C)[C@H](N[C@@H](c1ccc(-c2ccc([C@@H](O)C(F)F)cc2)cc1)C(F)(F)F)C(=O)N[C@H](C#N)Cc1c(F)cc(C#N)cc1F` [Example 73, (S)-N-[(S)-Cyano-(4-cyano-2,6-difluoro-benzyl)-methyl]-2-{(S)-1-[4,- ((R)-2,2-difluoro-1-hydroxy-ethyl)-biphenyl-4-yl]-2,2,2-trifluoro-ethylamino}-3-methyl-butyramide] is 0.7 nM. The compound `CC(C)[C@H](N[C@@H](c1ccc(-c2ccc(S(C)(=O)=O)cc2)cc1)C(F)(F)F)C(=O)N[C@H](C#N)Cc1ccc(C(F)(F)F)cc1F` [Example 62, (S)-N-[(S)-Cyano-(2-fluoro-4-trifluoromethyl-benzyl)-methyl]-3-methyl-2-[(S)-2,2,2-trifluoro-1-(4′-methanesulfonyl-biphenyl-4-yl)-ethylamino]-butyramide] had an IC50 of 0.4 nM. The value for `CC(C)(F)C[C@H](N[C@@H](c1ccc(-c2ccc(S(C)(=O)=O)cc2)cc1)C(F)(F)F)C(=O)NC(C#N)Cc1ccc(C(F)(F)F)cc1F` (stereo partly drawn) [Example 33, (S)-4-Fluoro-4-methyl-2-[(S)-2,2,2-trifluoro-1-(4′-methanesulfonyl-biphenyl-4-yl)-ethylamino]-pentanoic acid [cyano-(2-fluoro-4-trifluoromethyl-benzyl)-methyl]-amide] was 3.5 nM; that for `CC(C)(F)C[C@H](N[C@@H](c1ccc(-c2ccc(C3(C(=O)NCCO)CC3)cc2)cc1)C(F)(F)F)C(=O)N[C@H](C#N)Cc1ccccc1` [Example 52, 1-[4′-((S)-1-{(S)-1-[((S)-Benzyl-cyano-methyl)-carbamoyl]-3-fluoro-3-methyl-butylamino}-2,2,2-trifluoro-ethyl)-biphenyl-4-yl]-cyclopropanecarboxylic acid (2-hydroxy-ethyl)-amide] was 2.8 nM; that for `CC(C)(F)C[C@H](N[C@@H](c1ccc(-c2ccc(S(C)(=O)=O)cc2)cc1)C(F)(F)F)C(=O)N[C@H](C#N)Cc1ccc(F)cc1` [Example 16, (S)-4-Fluoro-4-methyl-2-[(S)-2,2,2-trifluoro-1-(4′-methanesulfonyl-biphenyl-4-yl)-ethylamino]-pentanoic acid [(S)-cyano-(4-fluoro-benzyl)-methyl]-amide] was 6.1 nM. The value for `CC(C)(F)C[C@H](N[C@@H](c1ccc(-c2ccc(S(C)(=O)=O)cc2)cc1)C(F)(F)F)C(=O)N[C@H](C#N)Cc1c(F)cc(C#N)cc1F` [Example 67, (S)-4-Fluoro-4-methyl-2-[(S)-2,2,2-trifluoro-1-(4′-methanesulfonyl-biphenyl-4-yl)-ethylamino]-pentanoic acid [(S)-cyano-(4-cyano-2,6-difluoro-benzyl)-methyl]-amide] was 0.9 nM; that for `CC(C)(F)C[C@H](N[C@@H](c1ccc(-c2ccc(C3(C(=O)NCC(F)(F)F)CC3)cc2)cc1)C(F)(F)F)C(=O)N[C@H](C#N)Cc1ccccc1` [Example 54, 1-[4′-((S)-1-{(S)-1-[((S)-Benzyl-cyano-methyl)-carbamoyl]-3-fluoro-3-methyl-butylamino}-2,2,2-trifluoro-ethyl)-biphenyl-4-yl]-cyclopropanecarboxylic acid (2,2,2-trifluoro-ethyl)-amide] was 9.4 nM. The value for `C[S+]([O-])c1ccc(-c2ccc([C@H](N[C@@H](CC(C)(C)F)C(=O)N[C@H](C#N)Cc3ccc(C#N)cc3F)C(F)(F)F)cc2)cc1` (stereo partly drawn) [Example 25, (S)-4-Fluoro-4-methyl-2-[(S)-2,2,2-trifluoro-1-(4′-methanesulfinyl-biphenyl-4-yl)-ethylamino]-pentanoic acid [(S)-1-cyano-2-(4-cyano-2-fluoro-phenyl)-ethyl]-amide] was 0.75 nM; that for `CC(C)C[C@H](N[C@@H](c1ccc(Br)cc1)C(F)(F)F)C(=O)N[C@H](C#N)Cc1ccc(S(C)(=O)=O)cc1` [Example 9, (S)-2-[(S)-1-(4-Bromo-phenyl)-2,2,2-trifluoro-ethylamino]-4-methyl-pentanoic acid [(S)-1-cyano-2-(4-methanesulfonyl-phenyl)-ethyl]-amide] was 0.6 nM; that for `CC(C)(F)C[C@H](N[C@@H](c1ccc(-c2ccc(-c3cc[n+]([O-])cc3)cc2)cc1)C(F)(F)F)C(=O)N[C@H](C#N)Cc1ccccc1` [Example 45, (S)-4-Fluoro-4-methyl-2-{(S)-2,2,2-trifluoro-1-[4′-(1-oxy-pyridin-4-yl)-biphenyl-4-yl]-ethylamino}-pentanoic acid ((S)-1-cyano-2-phenyl-ethyl)-amide] was 7.8 nM. Consider `CC(C)(F)C[C@H](N[C@@H](c1ccc(-c2ccc(S(N)(=O)=O)cc2)cc1)C(F)(F)F)C(=O)N[C@H](C#N)Cc1ccccc1` [Example 31, (S)-4-Fluoro-4-methyl-2-[(S)-2,2,2-trifluoro-1-(4′-sulfamoyl-biphenyl-4-yl)-ethylamino]-pentanoic acid ((S)-1-cyano-2-phenyl-ethyl)-amide], for which the IC50 turned out to be 16 nM.
